{"source": "patent US20260083864A1", "about": "“CONTRAST AGENTS FOR USE IN DIAGNOSTIC COMPUTED TOMOGRAPHY IMAGING” (Bayer Aktiengesellschaft, priority 2022, published 2026)", "key": {"[1]": {"conditions": "reference compounds, 1.5 T, 37° C., from Rohrer et al.; cited from earlier work"}, "[2]": {"conditions": "reference compounds, 1.5 T, 37° C., bovine plasma instead of human plasma, from Rohrer et al.; cited from earlier work"}, "[3]": {"tested_on": "freshly isolated rat hepatocytes", "test": "Uptake into freshly isolated rat hepatocytes", "conditions": "for Inhibition Rifampicine: rat hepatocyte uptake, test item and Rifampicine 1:1, each 100 μM; for Uptake rat hepatocytes: 100 μmol Gd/L, 10 min, 37° C., relative to RC1 (Gd-EOB-DTPA)", "quoted_text": "After incubation the adherent hepatocytes were washed once with 37° C. Hepes carbonate transport buffer (500 μL/well). The test items and RC1 were prepared from stock solutions (180 to 500 mM concentration) in Hepes carbonate transport buffer at pH 7.4 to reach a final concentration of 100 μmol Gd/L. The specific uptake of the test item or RC1 into rat hepatocytes via OATP1B1 and OATP1B3 was challenged using a known OATP1B1/1B3 inhibitor (Rifampicine, Fa. Sigma R3501, test item and inhibitor 1:1 each 100 μM final concentration). The prepared rat hepatocyte plates were incubated with test solutions (500 μL/well) at 37° C. for 10 min using a thermoshaker (Fa. Grant Bio, PHMP). Triplicates were performed for each test item. After incubating the cells were washed once with cold PBS buffer (Fa. Gibco, Dulbeccos PBS (+)). After washing the intact hepatocytes were lysed by addition of 500 μL cold 0.01% Triton-X 100 in Millipore water for 1 h. […] As a reference standard RC1 is used in the same well plate. The hepatocyte uptake of the test compound is calculated relative to RC1 (resulting in the unit % of RC1)."}, "[4]": {"test": "Partition coefficient (log P butanol/buffer)", "format": "physicochemical", "conditions": "1-butanol / 50 mM Tris-HCl, pH 7.4, room temperature"}, "[5]": {"conditions": "of the administered dose, literature; cited from earlier work"}, "[6]": {"test": "Complex stability (transmetallation) against Zn2+ in phosphate buffer", "conditions": "72 hours, 2.5 mM Zn^2+, 26 mM phosphate buffer, 37° C., pH 7.4", "source_text": "If test compounds are instable under these conditions, transmetallation during this test would lead to the formation of the Zn^2+ complex of the test item, while Gd^3+ is released and precipitated as highly insoluble GdPO4."}, "OATP1B3": {"target": "T1, OATP1B3 (Homo sapiens, UniProt Q9NPD5)", "T1 sequence (Q9NPD5 1-702)": "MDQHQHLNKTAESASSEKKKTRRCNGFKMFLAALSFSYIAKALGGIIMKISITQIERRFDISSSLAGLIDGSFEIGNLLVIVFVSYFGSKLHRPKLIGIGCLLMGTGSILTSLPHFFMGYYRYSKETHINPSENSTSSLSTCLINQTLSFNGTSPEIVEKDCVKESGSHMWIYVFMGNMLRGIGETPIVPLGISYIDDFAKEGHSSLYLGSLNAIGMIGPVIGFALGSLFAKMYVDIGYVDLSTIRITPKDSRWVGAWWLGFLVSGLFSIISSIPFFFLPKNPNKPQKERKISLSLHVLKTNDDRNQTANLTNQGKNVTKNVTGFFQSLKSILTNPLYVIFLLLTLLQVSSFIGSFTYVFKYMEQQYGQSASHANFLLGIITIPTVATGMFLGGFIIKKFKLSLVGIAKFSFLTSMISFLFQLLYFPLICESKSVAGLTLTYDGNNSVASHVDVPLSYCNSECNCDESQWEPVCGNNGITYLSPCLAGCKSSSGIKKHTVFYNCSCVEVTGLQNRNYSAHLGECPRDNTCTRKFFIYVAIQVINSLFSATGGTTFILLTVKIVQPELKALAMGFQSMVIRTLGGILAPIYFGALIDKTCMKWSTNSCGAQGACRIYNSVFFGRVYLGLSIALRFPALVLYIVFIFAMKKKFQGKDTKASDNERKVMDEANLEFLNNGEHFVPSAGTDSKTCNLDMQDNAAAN", "test": "Uptake into stable transfected OATP1B3 HEK 293 cells", "format": "cell-based", "conditions": "for Uptake into OATP1B3-HEK 293 cells: 40 min incubation, relative to RC1 (Gd-EOB-DTPA); for Inhibition Rifampicine: uptake into OATP1B3-HEK 293 cells", "procedure,_shortened": "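HEK 293 cells stably transfected with human OATP1B3 were incubated for 40 min with test items at 100 μM final in transport buffer, in triplicate, then washed with cold PBS. Gadoxetate (Gd-EOB-DTPA) served as the reference standard on the same plate.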"}, "OATP1B1": {"target": "T2, OATP1B1 (Homo sapiens, UniProt Q9Y6L6)", "T2 sequence (Q9Y6L6 1-691)": "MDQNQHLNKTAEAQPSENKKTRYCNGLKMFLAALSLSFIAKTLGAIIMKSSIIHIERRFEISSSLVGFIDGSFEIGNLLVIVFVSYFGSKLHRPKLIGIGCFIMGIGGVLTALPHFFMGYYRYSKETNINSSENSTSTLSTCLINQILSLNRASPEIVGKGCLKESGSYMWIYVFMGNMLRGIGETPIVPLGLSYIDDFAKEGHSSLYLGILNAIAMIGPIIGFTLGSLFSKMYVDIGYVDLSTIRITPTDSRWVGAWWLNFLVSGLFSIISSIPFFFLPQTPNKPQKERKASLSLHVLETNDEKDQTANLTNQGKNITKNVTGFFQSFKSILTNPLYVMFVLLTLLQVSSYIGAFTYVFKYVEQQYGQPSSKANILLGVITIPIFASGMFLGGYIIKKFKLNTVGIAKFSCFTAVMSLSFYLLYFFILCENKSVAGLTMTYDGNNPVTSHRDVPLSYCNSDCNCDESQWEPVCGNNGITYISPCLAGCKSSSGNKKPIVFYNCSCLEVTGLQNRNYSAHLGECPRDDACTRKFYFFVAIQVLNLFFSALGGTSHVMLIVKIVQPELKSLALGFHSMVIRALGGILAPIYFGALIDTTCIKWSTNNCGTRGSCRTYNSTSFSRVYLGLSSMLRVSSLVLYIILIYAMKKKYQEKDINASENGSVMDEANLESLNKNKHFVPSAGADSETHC", "test": "Uptake into stable transfected OATP1B1 HEK 293 cells", "format": "cell-based", "conditions": "for Uptake into OATP1B1-HEK 293 cells: 40 min incubation, relative to RC1 (Gd-EOB-DTPA); for Inhibition Rifampicine: uptake into OATP1B1-HEK 293 cells", "procedure,_shortened": "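Uptake measured in triplicate after a 40 min, unshaken exposure of OATP1B1-expressing HEK293 cells to 100 µM (final) compound in transport buffer. Cold PBS wash stopped uptake; Gd-EOB-DTPA served as reference standard within each plate.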"}, "[7]": {"test": "Relaxivity measurements at 1.41 T in water", "format": "physicochemical", "conditions": "37° C., normalized to Gd", "procedure,_shortened": "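T1 by inversion recovery and T2 by CPMG at 1.41 T (60 MHz), 37° C, relaxation delay ≥5×T1. Three Gd concentrations between 0.05 and 2 mM; relaxivities derived from measured relaxation rates in water.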"}, "[8]": {"test": "Relaxivity measurements at 1.41 T in human plasma", "format": "physicochemical", "conditions": "37° C., normalized to Gd", "procedure,_shortened": "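T1 determined by inversion recovery (8 inversion-time steps) and T2 by CPMG sequence, both with relaxation delay ≥5×T1. Each relaxivity used three Gd concentrations between 0.05 and 2 mM. Relaxivities were derived from relaxation rates measured in water and plasma.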"}, "[9]": {"test": "Water solubility in aqueous buffer", "conditions": "aqueous buffer 10 mM Tris-HCl, pH 7.4, 20° C.", "procedure": "The solid compounds were added stepwise to the buffer solution. More substance is added once all the suspended material is dissolved until an equilibrium between undissolved and dissolved substance is reached. The suspension was mixed using a shaker (Heidolph Reax 2000) and treated 5 min in an ultrasound bath (Bandelin, Sonorex Super RK255H)."}}, "note": "Where two headings read alike, the source gives them in different places.", "data": [{"compound": "O=C([O-])CN1CCN(CC(=O)[O-])CCN([C@H](CO)[C@H](O)CO)CCN(CC(=O)[O-])CC1.[Gd+3]", "note": "(racemic) [RC3, gadobutrol, reference compound]", "values": [{"measurement": "r1 water", "setting": "[1]", "result": 3.3, "unit": "L/mmol/s"}, {"measurement": "r1 plasma (r1 human plasma)", "setting": "[2]", "result": 5.2, "unit": "L/mmol/s"}, {"measurement": "Inhibition Rifampicine", "setting": "[3]", "result": 0, "unit": "% inhibition"}, {"measurement": "Log P (partition coefficient butanol/buffer)", "setting": "[4]", "result": "−2.22"}]}, {"compound": "O=C([O-])CN(CCN(CC(=O)[O-])CC(=O)[O-])CCN(CC(=O)[O-])C(COCc1ccccc1)C(=O)[O-].[Gd+3].[H+].[H+]", "note": "(stereo not drawn) [Gd-BOPTA, gadobenic acid]", "values": [{"measurement": "Secreted / excreted into the bile", "setting": "[5]", "result": "3-to-5%"}]}, {"compound": "O=C([O-])CN(CCN(CC(=O)[O-])CC(=O)[O-])CCN(CC(=O)[O-])C(COCc1ccccc1)C(=O)[O-].[Gd+3].[H+].[H+]", "note": "(stereo not drawn) [RC2, gadobenic acid, reference compound]", "values": [{"measurement": "Transmetallation stability", "setting": "[6]", "result": 14, "unit": "%"}, {"measurement": "r1 water", "setting": "[1]", "result": 3.3, "unit": "L/mmol/s"}, {"measurement": "r1 plasma (r1 human plasma)", "setting": "[2]", "result": 4.1, "unit": "L/mmol/s"}, {"measurement": "Uptake rat hepatocytes", "setting": "[3]", "result": "9 % of RC1"}, {"measurement": "Inhibition Rifampicine", "setting": "[3]", "result": 79, "unit": "% inhibition"}, {"measurement": "Log P (partition coefficient butanol/buffer)", "setting": "[4]", "result": "−2.07"}, {"measurement": "Uptake into OATP1B3-HEK 293 cells", "setting": "OATP1B3", "result": "4 % of RC1"}, {"measurement": "Inhibition Rifampicine", "setting": "OATP1B3", "result": 87, "unit": "% inhibition"}, {"measurement": "Uptake into OATP1B1-HEK 293 cells", "setting": "OATP1B1", "result": "31 % of RC1"}, {"measurement": "Inhibition Rifampicine", "setting": "OATP1B1", "result": 61, "unit": "% inhibition"}]}, {"compound": "CCOc1ccc(C[C@@H](CN(CCN(CC(=O)[O-])CC(=O)[O-])CC(=O)[O-])N(CC(=O)[O-])CC(=O)[O-])cc1.[Gd+3].[H+].[H+]", "note": "[Gd-EOB-DTPA, gadoxetic acid]", "values": [{"measurement": "Secreted / excreted into the bile", "setting": "[5]", "result": "up to 50%"}]}, {"compound": "CCOCCOCCOc1ccc(CC(C(=O)O)N2CCN(CC(=O)[O-])CCN(CC(=O)[O-])CCN(CC(=O)[O-])CC2)cn1.[Gd+3]", "note": "(stereo not drawn) [Example 16, gadolinium 2,2′,2″-{10-[1-carboxy-2-{6-[2-(2-ethoxyethoxy)ethoxy]pyridin-3-yl}ethyl]-1,4,7,10-tetraazacyclododecane-1,4,7-triyl}triacetate]", "values": [{"measurement": "Transmetallation stability", "setting": "[6]", "result": 101, "unit": "%"}, {"measurement": "r1 water", "setting": "[7]", "result": 4.4, "unit": "L/mmol/s"}, {"measurement": "Uptake rat hepatocytes", "setting": "[3]", "result": "16 % of RC1"}, {"measurement": "Inhibition Rifampicine", "setting": "[3]", "result": 92, "unit": "% inhibition"}, {"measurement": "Log P (partition coefficient butanol/buffer)", "setting": "[4]", "result": "−1.81"}, {"measurement": "r1 human plasma", "setting": "[8]", "result": 6.2, "unit": "L/mmol/s"}, {"measurement": "Solubility", "setting": "[9]", "result": ">416", "unit": "mM"}, {"measurement": "Uptake into OATP1B3-HEK 293 cells", "setting": "OATP1B3", "result": "25 % of RC1"}, {"measurement": "Inhibition Rifampicine", "setting": "OATP1B3", "result": 94, "unit": "% inhibition"}, {"measurement": "Uptake into OATP1B1-HEK 293 cells", "setting": "OATP1B1", "result": "66 % of RC1"}, {"measurement": "Inhibition Rifampicine", "setting": "OATP1B1", "result": 35, "unit": "% inhibition"}]}]}
